Experimental data from US20220125878A1, “Compositions and Methods for Preventing the Interaction Between SARS-COV-2 and L-Sign” (priority 2020, published 2022).

Assays:
[1] = target: T1, human L-SIGN (Homo sapiens, UniProt Q9H2X3); assay: Flow cytometry of Spike/Fc binding to L-SIGN-expressing HEK293T cells; conditions: EGTA 1 mM
T1 construct: host or cells: HEK293T
T1 sequence (Q9H2X3 1-399): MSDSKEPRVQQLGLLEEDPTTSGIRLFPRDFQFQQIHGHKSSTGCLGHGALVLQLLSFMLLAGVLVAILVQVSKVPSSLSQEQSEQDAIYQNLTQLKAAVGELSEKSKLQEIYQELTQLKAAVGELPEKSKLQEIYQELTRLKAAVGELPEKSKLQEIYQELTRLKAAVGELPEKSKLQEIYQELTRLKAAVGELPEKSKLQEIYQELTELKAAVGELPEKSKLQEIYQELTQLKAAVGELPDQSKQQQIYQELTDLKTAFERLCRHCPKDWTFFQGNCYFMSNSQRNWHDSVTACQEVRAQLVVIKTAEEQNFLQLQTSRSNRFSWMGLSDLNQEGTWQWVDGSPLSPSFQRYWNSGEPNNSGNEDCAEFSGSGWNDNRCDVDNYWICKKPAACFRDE

[2] = target: T2, SARS-CoV-2 spike protein (Severe acute respiratory syndrome coronavirus 2, UniProt P0DTC2); type: binding
T2 construct: host or cells: HEK293T

[3] = tested on: high-mannose type N-glycans on spike protein-expressing HEK293T cells; assay: Flow cytometry of GNL lectin binding to spike protein-expressing HEK293T cells; type: cell-based; conditions: spike protein-expressing HEK293T cells treated with kifunensine 10 μM, 48 h
[4] = tested on: VSVG-type pseudo-typed virus; type: cell-based
[5] = tested on: SARS-CoV-2-type pseudo-typed virus (CoV2-type); type: cell-based

Molecule | blocking of the interaction of Spike/Fc with L-SIGN [1] | inhibition of L-SIGN/Fc binding to spike protein-expressing HEK293T cells [2] | effect of treatment on binding of spike protein to L-SIGN/Fc [2] | effect of treatment on binding of spike protein to GNL [3] | blocking of control VSVG-type infection (% infection efficiency) [4] | blocking of L-SIGN-mediated CoV2-type infection (% infection efficiency) [5]
O=C(O)CN(CCOCCOCCN(CC(=O)O)CC(=O)O)CC(=O)O [EGTA] | blocked | inhibited | – | – | – | –
O=C1N[C@@H]2[C@@H](O)[C@@H](O)[C@H](O)[C@@H](CO)N2C1=O [Kifunensine] | – | – | enhanced | enhanced | – | –
mannan | – | inhibited | – | – | but not control VSVG-type infection | dose-dependently blocked
